Like-named read-outs stand apart in the source and are kept apart here.
How the values were obtained:
[1] = biological target: T1, human liver cathepsin L (Homo sapiens, UniProt P07711); experiment: Cathepsin L assay, IC50 determination; assay type: biochemical
T1 construct: 8.7 ng/mL human liver cathepsin L (Calbiochem 219402); purchased Calbiochem 219402; host or cells: human liver
Protocol: Assay buffer consisted of 20 mM sodium acetate, 1 mM ethylenediaminetetraacetic acid (EDTA) and 5 mM cysteine, pH 5.5. Cathepsin L was incubated in assay buffer for 30 minutes prior to dispensing into wells to allow for efficient reduction of the active site cysteine required for full enzymatic activity.
Upon activation, cathepsin L (300 pM, 8.7 ng/mL) was incubated with 1 microM Z-Phe-Arg-AMC substrate (Sigma C9521) and test compound in […] of assay buffer for 1 hour at room temperature.
All reactions were performed in 20 mM sodium acetate buffer containing 5 mM cysteine and 1 mM EDTA, pH 5.5. Reaction progress was monitored using the Envision microplate reader. IC50 values were measured in triplicate.

[2] = Stability in DMSO and cathepsin L assay buffer; assay type: physicochemical
Description: Some variability in IC50 values determined for Compound (iii) prompted us to explore the stability of both Compound No. 1 and Compound (iii) in solvents relevant to the bioassay.

[3] = biological target: T2, Human spleen cathepsin S (Homo sapiens, UniProt P25774); experiment: Cathepsin S assay, IC50 determination; assay type: biochemical; details: Tables 2-11; read-out: Cat S
T2 construct: Human spleen cathepsin S (Calbiochem 219344, 40 ng/mL); purchased Calbiochem 219344; host or cells: human spleen
Protocol: (§1) Human spleen cathepsin S (Calbiochem 219344, 40 ng/mL) was assayed using 15 microM Z-Phe-Arg-AMC substrate. Human liver cathepsin B (Calbiochem 219362, 65 ng/mL) was assayed using 15 microM Z-Arg-Arg-AMC substrate (Bachem I-1135). All reactions were performed in 20 mM sodium acetate buffer containing 1 mM EDTA and 5 mM cysteine, pH 5.5.
(§2) Compounds were serially diluted in DMSO and transferred into a 96-well Corning 3686 assay microplate to give a 16-point two-fold serial dilution dose response ranging from 25 microM to 760 pM. Human liver cathepsin L (Calbiochem 219402) was activated by incubating with assay buffer for 30 min. Upon activation, cathepsin L (300 pM, 8.7 ng/mL) was incubated with 1 microM Z-Phe-Arg-AMC substrate (Sigma C9521) and test compound in […] of assay buffer for 1 hour at room temperature. Fluorescence of AMC released by enzyme-catalyzed hydrolysis of Z-Phe-Arg-AMC was read on a PerkinElmer Envision microplate reader (excitation 355 nm, emission 460 nm). Data were scaled using internal controls and fitted to a four-parameter logistic model (IDBS XLfit equation 205) to obtain IC50 values in triplicate.
(§3) Compound No. 1 was assayed for inhibition against papain and cathepsins B, G, K, S, and V. Papain from Carica papaya (Calbiochem 5125, 11 ng/mL), human cathepsin K (Calbiochem 342001, 35 ng/mL), human spleen cathepsin S (Calbiochem 219344, 40 ng/mL), and human cathepsin V (Calbiochem 219467, 39 ng/ml) were assayed using Z-Phe-Arg-AMC substrate at 20 μM, 20 μM, 15 μM, and 1 μM, respectively. Human liver cathepsin B (Calbiochem 219362, 65 ng/mL) was assayed using 15 μM Z-Arg-Arg-AMC substrate (Bachem I-1135). Human neutrophil cathepsin G (Calbiochem 219373, 4.2 μg/mL) was assayed using 15 μM Suc-Ala-Ala-Pro-Phe-AMC substrate (Sigma S9761). All reactions were performed in 20 mM sodium acetate buffer containing 5 mM cysteine and 1 mM EDTA, pH 5.5. Reaction progress was monitored using the Envision microplate reader. IC50 values were measured in triplicate.

[4] = biological target: T3, Human liver cathepsin B (Homo sapiens, UniProt P07858); experiment: Cathepsin B assay, IC50 determination; assay type: biochemical; details: for Selectivity Index (IC50 Cat B)/(IC50 Cat L): Cathepsin B vs cathepsin L
T3 construct: Human liver cathepsin B (Calbiochem 219362, 65 ng/mL); purchased Calbiochem 219362; host or cells: human liver
Protocol: as §1, §2, §3

[5] = biological target: human cathepsin L (Homo sapiens, UniProt P07711); experiment: Preincubation studies, cathepsin L; assay type: biochemical; design: 8.7 ng/mL human liver cathepsin L (Calbiochem 219402); purchased Calbiochem 219402; host or cells: human liver; details: preincubation with enzyme 4 h; read-out: IC50 against human cathepsin L after 4 hours preincubation
Protocol: To establish the time-dependent mechanism of inhibition, enzyme and inhibitor were preincubated for various time points in a 96-well microplate prior to the addition of substrate to initiate the enzymatic reaction. 47.5 μL of cathepsin L (18.3 ng/mL) and 47.5 μL of Compound No. 1 at various concentrations in assay buffer were incubated up to 4 hours. Five μL of Z-Phe-Arg-AMC substrate were then added and the plate was monitored for AMC hydrolysis on the Envision fluorescent microplate reader.

[6] = test system: zebrafish; experiment: Zebrafish live organism toxicity assay; details: at 100 μM
[7] = test system: SARS coronavirus pseudotype; experiment: microbe, parasite or virus in culture; assay type: cell-based; details: read-out: IC50, SARS-CoV pseudotype entry
[8] = test system: Vesicular stomatitis virus (VSV); experiment: microbe, parasite or virus in culture; assay type: cell-based; details: read-out: IC50, VSV entry (control)
[9] = test system: Ebola virus pseudotype; experiment: microbe, parasite or virus in culture; assay type: cell-based; details: read-out: IC50, Ebola virus pseudotype entry
[10] = biological target: T1, human liver cathepsin L; experiment: HTS of MLSMR library and confirmatory dose response against cathepsin L; assay type: biochemical; details: 10 μM compound
Protocol: 57,821 compounds from the NIH Molecular Libraries Small Molecule Repository (MLSMR) were screened against human liver cathepsin L. This screen was performed in 384-well Corning 3676 black, low-volume, non-binding surface (NBS)-coated polystyrene plates using a total reaction volume of 10 μL per well. Final well concentrations were: 10 μM compound (2% DMSO), 300 pM (8.7 ng/mL) human liver cathepsin L, 1 μM Z-FR-AMC substrate, and 20 mM sodium acetate buffer containing 1 mM EDTA and […], pH 5.5. Cathepsin L was activated in the assay buffer for 30 minutes prior to dispensing into wells. Assay plates were incubated at room temperature for one how and the fluorescence intensity of each well was read with a PerkinElmer Envision plate reader (Ex: 355 nm, Em: 460 nm) to measure hydrolysis of the AMC substrate.
Library samples containing 2,5-disubstituted oxadiazoles were identified as potent hits in a high throughput screen of the NIH Molecular Libraries Small Molecule Repository directed at discovering inhibitors of cathepsin L (Table I). […] Analyses by LC-MS of original library samples indicated the presence of a number of impurities, in addition to the oxadiazoles. Synthesis and bioassay of the probable impurities led to the identification of a thiocarbazate that likely originated via ring opening of the oxadiazole. […]

[11] = no preincubation of enzyme and inhibitor, read-out: IC50 against cathepsin L (no preincubation)

T1 sequence (P07711 114-288 limits assumed): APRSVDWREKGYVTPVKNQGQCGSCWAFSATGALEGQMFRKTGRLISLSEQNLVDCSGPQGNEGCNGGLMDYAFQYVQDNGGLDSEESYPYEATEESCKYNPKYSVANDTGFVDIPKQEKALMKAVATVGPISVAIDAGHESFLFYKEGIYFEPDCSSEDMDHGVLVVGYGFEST
T1 sequence (P07711 292-333 limits assumed): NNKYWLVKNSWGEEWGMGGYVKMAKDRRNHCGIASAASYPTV
T2 sequence (P25774 115-331): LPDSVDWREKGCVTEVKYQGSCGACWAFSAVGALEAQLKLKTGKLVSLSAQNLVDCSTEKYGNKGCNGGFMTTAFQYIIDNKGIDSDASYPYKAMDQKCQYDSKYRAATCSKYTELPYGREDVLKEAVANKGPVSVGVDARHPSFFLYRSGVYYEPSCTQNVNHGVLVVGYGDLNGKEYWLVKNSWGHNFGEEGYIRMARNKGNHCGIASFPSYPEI
Sequence of human cathepsin L (P07711 114-288 limits assumed): as the sequence (P07711 114-288 limits assumed) above
Sequence of human cathepsin L (P07711 292-333 limits assumed): as the sequence (P07711 292-333 limits assumed) above

| Compound | IC50 [3] [µM] | IC50 ([4]; Tables 2-11, read-out: Cat B) [µM] | IC50 ([1]; Tables 2-11, read-out: Cat L) [µM] | also measured |
| --- | --- | --- | --- | --- |
| CCc1ccccc1NC(=O)CSC(=O)NNC(=O)[C@@H](N)Cc1c[nH]c2ccccc12 [Compound (iii)] |  |  |  | IC50 [1, 11]: 0.133 µM; stability in DMSO [2]: unstable |
| CCc1ccccc1NC(=O)COC(=O)NNC(=O)[C@H](Cc1c[nH]c2ccccc12)NC(=O)OC(C)(C)C [Compound No. 93] | 0.062 | ≥ 25 | 0.011 |  |
| CC(C)(C)OC(=O)N[C@@H](Cc1c[nH]c2ccccc12)C(=O)NNC(=O)OCc1ccccc1 [Compound No. 94] | 4.1 | ≥ 25 | 0.806 |  |
| CCOC(=O)NNC(=O)[C@H](Cc1c[nH]c2ccccc12)NC(=O)OC(C)(C)C [Compound No. 95] | ≥ 25 | ≥ 25 | ≥ 25 |  |
| CC(C)(C)OC(=O)N[C@@H](Cc1c[nH]c2ccccc12)C(=O)NNC(=O)OCC(=O)N1CCCc2ccccc21 [Compound No. 96] | 0.025 | 10.1 | 0.006 | IC50 [5]: 0.0004 µM; Selectivity Index (IC50 Cat B)/(IC50 Cat L) ([4]; no preincubation): 724.6; Selectivity Index (IC50 Cat B)/(IC50 Cat L) ([4]; no preincubation, listed as SID 46493575): 725; IC50 ([4]; Table 18, Cathepsin B, human liver, no preincubation, read-out: IC50): 5.07 ± 0.883 µM; toxicity to zebrafish [6]: Non-toxic to zebrafish at 100 μM; IC50 ([7]; Severe acute respiratory syndrome coronavirus, HEK-293T): 0.273 ± 0.049 µM; IC50 [7]: ~0.2 µM; IC50 ([8]; Vesicular stomatitis virus): ≥ 10 µM; IC50 [8]: > 10 µM; Selectivity Index ([1]; Table 18, Cathepsin L): 1.0; IC50 [1, 11]: 0.0069 µM; IC50 ([9]; Zaire ebolavirus, HEK-293T): 0.193 ± 0.039 µM; IC50 [9]: ~0.2 µM |
| CCc1ccccc1NC(=O)CCC(=O)NNC(=O)[C@H](Cc1c[nH]c2ccccc12)NC(=O)OC(C)(C)C [Compound No. 113] | ≥ 25 | ≥ 25 | ≥ 25 |  |
| O=C(CCc1c[nH]c2ccccc12)NNC(=O)CCc1c[nH]c2ccccc12 [Compound No. 114] | ≥ 25 | ≥ 25 | ≥ 25 |  |
| CC(C)(C)OC(=O)N[C@@H](Cc1c[nH]c2ccccc12)C(=O)NNC(=O)CCC(=O)N1CCCc2ccccc21 [Compound No. 115] | ≥ 25 | ≥ 25 | ≥ 25 |  |
| CSCC[C@H](NC(=O)OC(C)(C)C)C(=O)NNC(=O)c1ccccc1 [Compound No. 116] | ≥ 25 | ≥ 25 | ≥ 25 |  |
| CC(C)(C)OC(=O)N[C@@H](Cc1c[nH]c2ccccc12)C(=O)NNC(=O)[C@@H](Cc1c[nH]c2ccccc12)NC(=O)OC(C)(C)C [Compound No. 117] | ≥ 25 | ≥ 25 | ≥ 25 |  |
| CC(C)(C)OC(=O)N[C@@H](Cc1c[nH]c2ccccc12)C(=O)NN [Compound No. 118] | ≥ 25 | ≥ 25 | ≥ 25 |  |
| CC(C)(C)OC(=O)N[C@H](Cc1c[nH]c2ccccc12)C(=O)NN [Compound No. 119] | ≥ 25 | ≥ 25 | ≥ 25 |  |
| CC(C)(C)OC(=O)N[C@@H](Cc1c[nH]c2ccccc12)C(=O)NOCC(=O)N1CCCc2ccccc21 [Compound No. 120] | ≥ 25 | ≥ 25 | ≥ 25 |  |
| C/C=C(/C=O)[C@@H](CC=O)CC(=O)OCCc1ccc(O)cc1 [Compound No. 121] | ≥ 25 | ≥ 25 | ≥ 25 |  |
| Cc1ccc(S(=O)(=O)NNC(=O)[C@H](Cc2ccc(OC(=O)OC(C)(C)C)cc2)NC(=O)OC(C)(C)C)cc1 [Compound No. 122] | ≥ 25 | ≥ 25 | ≥ 25 |  |
| CC(C)(C)OC(=O)N[C@@H](Cc1c[nH]c2ccccc12)C(=O)N/N=C/c1ccccc1 [Compound No. 123] | ≥ 25 | ≥ 25 | ≥ 25 |  |
| CC(C)(C)OC(=O)N[C@@H](Cc1c[nH]c2ccccc12)C(=O)N/N=C/c1ccc(Cl)cc1 [Compound No. 124] | ≥ 25 | ≥ 25 | ≥ 25 |  |
| CC(C)(C)OC(=O)N[C@@H](Cc1c[nH]c2ccccc12)C(=O)NNC(=O)NCC(=O)N1CCCc2ccccc21 [Compound No. 125] | 13 | ≥ 25 | 2.34 |  |
| CSCC[C@H](NC(=O)OC(C)(C)C)C(=O)NNC(=S)SCC(=O)N1CCc2ccccc21 [Compound No. 126] | ≥ 25 | ≥ 25 | ≥ 25 |  |
| CC(C)(C)OC(=O)N[C@@H](Cc1ccc(OC(=O)OC(C)(C)C)cc1)C(=O)NNC(=O)C(=O)N1CCc2ccccc2C1 [Compound No. 127] | ≥ 25 | ≥ 25 | ≥ 25 |  |
| CC(C)C[C@H](NC(=O)[C@H]1O[C@@H]1C(=O)O)C(=O)NCCCCN=C(N)N [E-64] |  |  |  | HTS identification as cathepsin L inhibitor (in words) [10]: potent inhibitors of cathepsin L |
| CC(C)CCNC(=O)[C@H](CC(C)C)NC(=O)[C@H]1O[C@@H]1C(=O)O [E-64c] |  |  |  | HTS identification as cathepsin L inhibitor (in words) [10]: potent inhibitors of cathepsin L |
